The text below walks through data of patent US7064120B2, “Tricyclic pyridyl carboxamides and derivatives thereof tocolytic oxytocin receptor antagonists” (Wyeth, priority 2001, dated 2006).

Each structure is given as a SMILES string.

The target in this experiment is T1, human vasopressin V1a receptor subtype (Homo sapiens, UniProt P37288).
T1 construct: host or cells: CHO cells, stably transfected (pZeoSV vector for the Thibonnier line)
T1 sequence (P37288 whole entry): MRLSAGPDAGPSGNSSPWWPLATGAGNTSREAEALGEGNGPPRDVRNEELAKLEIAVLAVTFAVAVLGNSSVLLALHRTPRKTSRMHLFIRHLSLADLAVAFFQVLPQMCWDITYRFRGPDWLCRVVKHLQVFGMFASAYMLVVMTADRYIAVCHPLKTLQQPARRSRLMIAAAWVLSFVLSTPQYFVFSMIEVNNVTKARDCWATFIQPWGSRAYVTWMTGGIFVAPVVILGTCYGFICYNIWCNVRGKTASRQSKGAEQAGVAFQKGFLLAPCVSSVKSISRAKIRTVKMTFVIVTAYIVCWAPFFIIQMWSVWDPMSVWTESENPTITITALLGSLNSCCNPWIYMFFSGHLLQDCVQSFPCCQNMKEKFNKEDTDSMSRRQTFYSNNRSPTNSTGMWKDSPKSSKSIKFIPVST
The experiment can be described thus: Vasopressin binding in CHO cell membranes expressing human vasopressin V1a subtype receptors ([3H]Manning ligand radioligand binding). The following applies: 100 nM. As for the experimental part:
Vasopressin Binding in Chinese Hamster Ovary Cell Membranes Expressing Human Vasopressin V1a Subtype Receptors
The trypsin is removed by aspiration and the cells dislodged by tapping. Cell Culture medium (e.g. 30 mL for 1:30 split) is immediately added and mixed well to inactivate trypsin. 1 mL of detached cells is added to new culture flasks containing fresh cell culture medium (e.g., into 25 mL per T-150 flask), and mixed gently. The cells are incubated at 37° C. in 5% CO2. The medium is changed at 3 to 4 days interval (or as appropriate). […] All steps are done under sterile conditions.
The cells are washed twice gently with Hank's Balanced Salt solution (e.g,. use 10 mL per T-150 flask). […] The contents are transferred to centrifuge tubes (50 mL) kept in an ice bath. All subsequent steps are done at 4° C. The tubes are centrifuged at 300×g for 15 min (1380 rpm on SORVAL, Model RT6000D, using the rotor for 50 mL tubes). The supernatant is discarded and the cells suspended in homogenizing buffer(10 mM Tris-HCl containing 0.25 M sucrose and 1 mM EDTA, pH 7.4) ensuring that the volume of the buffer is about ten times the volume of the cell pellet. The cells are pooled into a centrifuge tube (50 mL) and homogenized with Polytron at setting 6 for 10 sec. The homogenate is transferred into a Potter-Elvjehm homogenizer and homogenized with 3 strokes. The homogenate is centrifuged at 1500×g for 10 min at 4° C. (3100 rpm using SORVAL, model RT6000D, using the rotor for 50 mL tubes). The pellet is discarded. The supernatant is centrifuged at 100,000×g for 60 min. at 4° C. (Beckman L8-80M ultracentrifuge; spin at 37,500 rpm with rotor type 70 Ti for 50 mL tubes; 38,000 rpm with type 80Ti for 15 mL tubes; or 35,800 rpm with rotor type 45Ti). The supernantant is discarded and the pellet suspended in 3 to 4 mL of Tris buffer (50 mM TRIS-HCl, pH 7.4). The protein content is estimated by the Bradford or Lowry method. The volume of the membrane suspension is adjusted with the membrane buffer (50 mM Tris-HCl containing 0.1% BSA and 0.1 mM PMSF) to give 3.0 mg/mL (or as appropriate) of protein. The membranes are aliquoted and stored at −70° C.
In wells of a 96-well format microtiter plate, is added 90, 110 or 130 μL (to make up a final volume of 200 μL) of assay buffer containing 50 mM of Tris-HCl (pH 7.4), BSA (heat inactivated, protease-free), […], 1 mg % aprotinin, 1 mg % leupeptin, 2 mg % 1,10-phenanthroline, 10 mg % trypsin inhibitor, and 0.1 mM PMSF. The inhibitors are added on the day of the experiment. The components are mixed at room temperature, and then kept in ice bath following adjustment of the pH to 7.4. […] 20 μL of 50% DMSO is added for Manning and other peptide ligands and the assay buffer volume is adjusted accordingly. To each well is added 50 μL of frozen membrane suspension thawed immediately prior to use and diluted in the assay buffer to the required concentration (equivalent to 25 to 50 μg of protein/well as needed). 20 μL of 8 nM [^3H]Manning ligand in the assay buffer, prepared just before use, is added, and incubated at room temperature for 60 min. shaking the plate on a mechanical shaker for the first 15 min. The incubation is stopped by rapid filtration of the plate contents followed by wash with ice-cold buffer (50 mM Tris-HCl, pH 7.4) using a cell harvester (Tomtek and Printed filtermat-B filter paper). The filter paper is thoroughly dried (7–12 min. in a microwave oven) and impregnated with MeltiLex B/H melt-on scintillation wax sheets and the radioactivity counted in a betaplate scintillation counter.
Binding data is either reported as percent inhibition at a certain concentration or if an IC50 was calculated, as a nanomolar concentration.
Regarding `COc1cc(C(=O)N2Cc3ccc(C(=O)NCc4cccnc4)n3Cc3ccccc32)ccc1-c1ccccc1C` [Example 41, 10-[(2-Methoxy-2′-methyl-[1,1′-biphenyl]-4-yl)carbonyl]-N-(3-pyridinylmethyl)-10,11-dihydro-5H-pyrrolo[2,1-c][1,4]benzodiazepine-3-carboxamide], the inhibition at 0.1 µM was 20%.

Take `COc1cccc(-c2cc(OC)c(C(=O)N3Cc4ccc(C(=O)NCc5ccccn5)n4Cc4ccccc43)cc2Cl)c1` [Example 30, 10-[(6-Chloro-3,3′-dimethoxy-[1,1′-biphenyl]-4-yl)carbonyl]-N-(2-pyridinylmethyl)-10,11-dihydro-5H-pyrrolo[2,1-c][1,4]benzodiazepine-3-carboxamide]: the inhibition at 0.1 µM is -7%.

As to `O=C(NCCc1ccccn1)c1ccc2n1Cc1ccccc1N(C(=O)c1ccc(-c3cccc4ccccc34)cc1Cl)C2` [Example 60, 10-[2-Chloro-4-(naphthalen-1-yl)benzoyl]-N-[2-(2-pyridinyl)ethyl]-10,11-dihydro-5H-pyrrolo[2,1-c][1,4]benzodiazepine-3-carboxamide], the inhibition at 0.1 µM came out at 4%.

Take `CN(CCc1ccncc1)C(=O)c1ccc2n1Cc1ccccc1N(C(=O)c1ccc(-c3cccc4ccccc34)cc1Cl)C2` [Example 136, 10-[2-Chloro-4-(naphthalen-1-yl)benzoyl]-N-methyl-N-[2-(4-pyridinyl)ethyl]-10,11-dihydro-5H-pyrrolo[2,1-c][1,4]benzodiazepine-3-carboxamide]: the inhibition at 0.1 µM was 7%.

In the case of `Cc1cc(C(=O)N2Cc3ccc(C(=O)NCc4cccnc4)n3Cc3ccccc32)ccc1-c1ccccc1C(F)(F)F` [Example 48, 10-{[2-Methyl-2′-trifluoromethyl-[1,1′-biphenyl]-4-yl]carbonyl}-N-(3-pyridinylmethyl)-10,11-dihydro-5H-pyrrolo[2,1-c][1,4]benzodiazepine-3-carboxamide], the inhibition at 0.1 µM stood at 0%.

With `COc1cccc(-c2ccc(C(=O)N3Cc4ccc(C(=O)N(C)CCc5ccncc5)n4Cc4ccccc43)cc2OC)c1` [Example 135, 10-[(2,3′-Dimethoxy-[1,1′-biphenyl]-4-yl)carbonyl]-N-methyl-N-[2-(4-pyridinyl)ethyl]-10,11-dihydro-5H-pyrrolo[2,1-c][1,4]benzodiazepine-3-carboxamide], the inhibition at 0.1 µM came out at 68%.

Consider `COc1cccc(-c2ccc(C(=O)N3Cc4ccc(C(=O)NCc5ccccn5)n4Cc4ccccc43)cc2OC)c1` [Example 33, 10-[(2,3′-Dimethoxy-[1,1′-biphenyl]-4-yl)carbonyl]-N-(2-pyridinylmethyl)-10,11-dihydro-5H-pyrrolo[2,1-c][1,4]benzodiazepine-3-carboxamide], for which the inhibition at 0.1 µM was 23%.

As to `COc1ccccc1-c1ccc(C(=O)N2Cc3ccc(C(=O)NCCc4ccccn4)n3Cc3ccccc32)cc1` [Example 52, 10-[(2′-Methoxy-[1,1′-biphenyl]-4-yl)carbonyl]-N-[2-(2-pyridinyl)ethyl]-10,11-dihydro-5H-pyrrolo[2,1-c][1,4]benzodiazepine-3-carboxamide], the inhibition at 0.1 µM came out at 16%.

Consider `Cc1cc(C(=O)N2Cc3ccc(C(=O)NCCc4ccccn4)n3Cc3ccccc32)ccc1-c1ccccc1C(F)(F)F` [Example 61, 10-{[2-Methyl-2′-trifluoromethyl=[1,1′-biphenyl]-4-yl]carbonyl}-N-[2-(2-pyridinyl)ethyl]-10,11-dihydro-5H-pyrrolo[2,1-c][1,4]benzodiazepine-3-carboxamide], for which the “V1a % inhibition @ 100 nM” value is reported as 6%.

For the molecule `Cc1ccccc1-c1ccc(C(=O)N2Cc3ccc(C(=O)NCCc4ccccn4)n3Cc3ccccc32)cc1` [Example 53, 10-[(2′-Methyl-[1,1′-biphenyl]-4-yl)carbonyl]-N-[2-(2-pyridinyl)ethyl]-10,11-dihydro-5H-pyrrolo[2,1-c][1,4]benzodiazepine-3-carboxamide], the inhibition at 0.1 µM was found to be 11%.

`COc1cc(-c2ccccc2C)c(Cl)cc1C(=O)N1Cc2ccc(C(=O)NCc3ccccn3)n2Cc2ccccc21` [Example 29, 10-[(6-Chloro-3-methoxy-2′-methyl-[1,1′-biphenyl]-4-yl)carbonyl]-N-(2-pyridinylmethyl)-10,11-dihydro-5H-pyrrolo[2,1-c][1,4]benzodiazepine-3-carboxamide]: the inhibition at 0.1 µM came out at 0%.

Turning to `COc1cc(-c2ccccc2C)c(Cl)cc1C(=O)N1Cc2ccc(C(=O)NCc3cccnc3)n2Cc2ccccc21` [Example 42, 10-[(6-Chloro-3-methoxy-2′-methyl-[1,1′-biphenyl]-4-yl)carbonyl]-N-(3-pyridinylmethyl)-10,11-dihydro-5H-pyrrolo[2,1-c][1,4]benzodiazepine-3-carboxamide], the inhibition at 0.1 µM is -11%.

`COc1cccc(-c2cc(OC)c(C(=O)N3Cc4ccc(C(=O)N(C)Cc5cccnc5)n4Cc4ccccc43)cc2Cl)c1` [Example 108, 10-[(6-Chloro-3,3′-dimethoxy-[1,1′-biphenyl]-4-yl)carbonyl]-N-methyl-N-(3-pyridinylmethyl)-10,11-dihydro-5H-pyrrolo[2,1-c][1,4]benzodiazepine-3-carboxamide]: the inhibition at 0.1 µM came to 4%.

In the case of `COc1cc(-c2ccccc2C)c(Cl)cc1C(=O)N1Cc2ccc(C(=O)N3CCCCC3c3cccnc3)n2Cc2ccccc21` (stereo not shown) [Example 140, {10-[(6-Chloro-3-methoxy-2′-methyl-[1,1′-biphenyl]-4-yl)carbonyl]-10,11-dihydro-5H-pyrrolo[2,1-c][1,4]benzodiazepin-3-yl}[2-(3-pyridinyl)-1-piperidinyl]methanone], the inhibition at 0.1 µM is -3%.

Regarding `Cc1ccccc1-c1ccc(C(=O)N2Cc3ccc(C(=O)N4CCN(c5ccncc5)CC4)n3Cc3ccccc32)cc1C` [Example 114, {10-[(2,2′-Dimethyl-[1,1′-biphenyl]-4-yl)carbonyl]-10,11-dihydro-5H-pyrrolo[2,1-c][1,4]benzodiazepin-3-yl}[4-(4-pyridinyl)-1-piperazinyl]methanone], the inhibition at 0.1 µM was 56%.

In the case of `COc1cc(C(=O)N2Cc3ccc(C(=O)N(C)Cc4cccnc4)n3Cc3ccccc32)ccc1-c1cccc2ccccc12` [Example 109, 10-[3-Methoxy-4-(naphthalen-1-yl)benzoyl]-N-methyl-N-(3-pyridinylmethyl)-10,11-dihydro-5H-pyrrolo[2,1-c][1,4]benzodiazepine-3-carboxamide], the inhibition at 0.1 µM is 7%.

Take `Cc1cc(C(=O)N2Cc3ccc(C(=O)NCc4ccccn4)n3Cc3ccccc32)ccc1-c1ccccc1C(F)(F)F` [Example 35, 10-{[2-Methyl-2′-trifluoromethyl-[1,1′-biphenyl]-4-yl]carbonyl}-N-(2-pyridinylmethyl)-10,11-dihydro-5H-pyrrolo[2,1-c][1,4]benzodiazepine-3-carboxamide]: the inhibition at 0.1 µM was 4%.

Regarding `COc1cccc(-c2ccc(C(=O)N3Cc4ccc(C(=O)NCCc5ccccn5)n4Cc4ccccc43)cc2OC)c1` [Example 59, 10-[(2,3′-Dimethoxy-[1,1′-biphenyl]-4-yl)carbonyl]-N-[2-(2-pyridinyl)ethyl]-10,11-dihydro-5H-pyrrolo[2,1-c][1,4]benzodiazepine-3-carboxamide], the inhibition at 0.1 µM stood at 12%.

As for `COc1ccccc1-c1ccc(C(=O)N2Cc3ccc(C(=O)N4CCN(c5ccncc5)CC4)n3Cc3ccccc32)cc1` [Example 116, {10-[(2′-Methoxy-[1,1′-biphenyl]-4-yl)carbonyl]-10,11-dihydro-5H-pyrrolo[2,1-c][1,4]benzodiazepin-3-yl}[4-(4-pyridinyl)-1-piperazinyl]methanone], the inhibition at 0.1 µM turned out to be 77%.

What is called inhibition is the relative decrease from the control value, in per cent.
